{"source": "patent US9108983B2", "about": "“Pyrrole compounds, a process for their preparation and pharmaceutical compositions containing them” (LES LABORATOIRES SERVIER, priority 2013, dated 2015)", "key": {"Bcl-2 protein": {"molecular_target": "Bcl-2 protein (histag-Bcl-2, UniProtKB P10415) (Homo sapiens (Human), UniProt P10415)", "sequence (P10415 whole entry)": "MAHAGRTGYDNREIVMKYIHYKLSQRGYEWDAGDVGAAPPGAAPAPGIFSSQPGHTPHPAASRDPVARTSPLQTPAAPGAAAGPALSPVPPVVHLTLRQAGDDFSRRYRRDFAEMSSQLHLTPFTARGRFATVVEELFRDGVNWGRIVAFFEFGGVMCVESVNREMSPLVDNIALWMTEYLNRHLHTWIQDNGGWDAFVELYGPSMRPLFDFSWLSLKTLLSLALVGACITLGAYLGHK", "test": "Inhibition of Bcl-2 by the fluorescence polarisation technique", "type": "binding", "settings": "incubation for 2 hours, read-out: IC50 (nM) Bcl-2 FP", "in_short": "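In pH 7.4 buffer (Hepes 10 mM, NaCl 150 mM, Tween20 0.05%), test compounds at increasing concentrations competed with a fluorescein peptide (1.00×10^−8 M final) for histag-Bcl-2 (2.50×10^−8 M final). Readout was fluorescence polarisation after a 2 h incubation.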"}, "[1]": {"tested_on": "RS4;11 leukaemia tumour line", "test": "In vitro cytotoxicity (Microculture Tetrazolium Assay)", "type": "cell-based", "settings": "RS4;11 cells, exposed for 48 hours, cell viability, read-out: IC50 (nM) MTT RS4;11", "method": "The cytotoxicity studies were carried out on the RS4;11 leukaemia tumour line.\nThe cells are distributed onto microplates and exposed to the test compounds for 48 hours.\nThe cell viability is then quantified by a colorimetric assay, the Microculture Tetrazolium Assay (Cancer Res., 1987, 47, 939-942)."}}, "note": "Structures can show the parent of a compound that is named as a salt. Where two headings read alike, the source gives them in different places.", "data": [{"compound": "Cc1c(C(=O)N(C)c2ccc(O)cc2)cc(-c2cc(CCNC(=O)COc3ccccc3)ccc2C(=O)N2Cc3ccccc3C[C@H]2C)n1C", "note": "[Example 46, N-(4-Hydroxyphenyl)-N,1,2-trimethyl-5-(2-{[(3R)-3-methyl-3,4-dihydroisoquinolin-2(1H)-yl]carbonyl}-5-{2-[(phenoxyacetyl)amino]ethyl}phenyl)-1H-pyrrole-3-carboxamide]", "values": [{"measurement": "IC50", "setting": "Bcl-2 protein", "value": 76.6, "unit": "nM"}, {"measurement": "IC50", "setting": "[1]; Homo sapiens, RS4-11, 48 h", "value": "> 600", "unit": "nM"}]}, {"compound": "Cc1c(C(=O)N(c2ccc(O)cc2)c2cnn(C)c2)cc(-c2cc(Cl)ccc2C(=O)N2Cc3ccccc3C[C@H]2CN2CCN3CCOC[C@@H]3C2)n1C", "note": "[Example 115, 5-(5-Chloro-2-{[(3S)-3-[(9aS)-hexahydropyrazino[2,1-c][1,4]oxazin-8(1H)-ylmethyl]-3,4-dihydroisoquinolin-2(1H)-yl]carbonyl}phenyl)-N-(4-hydroxyphenyl)-1,2-dimethyl-N-(1-methyl-1H-pyrazol-4-yl)-1H-pyrrole-3-carboxamide dihydrochloride]", "values": [{"measurement": "IC50", "setting": "Bcl-2 protein", "value": 3.6, "unit": "nM"}, {"measurement": "IC50", "setting": "[1]; Homo sapiens, RS4-11, 48 h", "value": 18.3, "unit": "nM"}]}, {"compound": "Cc1c(C(=O)N(c2ccncc2)c2ccc(O)cc2)cc(-c2cc(F)ccc2C(=O)N2Cc3ccccc3C[C@H]2CN2CCOCC2)n1C", "note": "[Example 384, 5-(5-Fluoro-2-{[(3S)-3-(morpholin-4-ylmethyl)-3,4-dihydroisoquinolin-2(1H)-yl]carbonyl}phenyl)-N-(4-hydroxyphenyl)-1,2-dimethyl-N-(pyridin-4-yl)-1H-pyrrole-3-carboxamide hydrochloride]", "values": [{"measurement": "IC50", "setting": "Bcl-2 protein", "value": 9.7, "unit": "nM"}, {"measurement": "IC50", "setting": "[1]; Homo sapiens, RS4-11, 48 h", "value": 216, "unit": "nM"}]}, {"compound": "Cc1c(C(=O)N(c2ccc(O)cc2)c2cnn(C)c2)cc(-c2ccccc2C(=O)N2Cc3ccccc3C[C@H]2CN2CCOCC2)n1C", "note": "[Example 422, N-(4-Hydroxyphenyl)-1,2-dimethyl-N-(1-methyl-1H-pyrazol-4-yl)-5-(2-{[(3S)-3-(morpholin-4-ylmethyl)-3,4-dihydroisoquinolin-2(1H)-yl]carbonyl}phenyl)-1H-pyrrole-3-carboxamide hydrochloride]", "values": [{"measurement": "IC50", "setting": "Bcl-2 protein", "value": 9.2, "unit": "nM"}, {"measurement": "IC50", "setting": "[1]; Homo sapiens, RS4-11, 48 h", "value": 101, "unit": "nM"}]}, {"compound": "Cc1c(C(=O)N(c2ccncc2)c2ccc(O)cc2)cc(-c2cc(Cl)ccc2C(=O)N2Cc3ccccc3C[C@H]2C)n1C", "note": "[Example 28, 5-(5-Chloro-2-{[(3R)-3-methyl-3,4-dihydroisoquinolin-2(1H)-yl]carbonyl}phenyl)-N-(4-hydroxyphenyl)-1,2-dimethyl-N-(pyridin-4-yl)-1H-pyrrole-3-carboxamide hydrochloride]", "values": [{"measurement": "IC50", "setting": "Bcl-2 protein", "value": 7.5, "unit": "nM"}, {"measurement": "IC50", "setting": "[1]; Homo sapiens, RS4-11, 48 h", "value": 95.3, "unit": "nM"}]}, {"compound": "Cc1c(C(=O)N(c2ccc(O)cc2)c2cnn(C3CCOC3)c2)cc(-c2cc(Cl)ccc2C(=O)N2Cc3ccccc3C[C@H]2CN2CCOCC2)n1C", "note": "(stereo partly drawn) [Example 127, 5-(5-Chloro-2-{[(3S)-3-(morpholin-4-ylmethyl)-3,4-dihydroisoquinolin-2(1H)-yl]carbonyl}phenyl)-N-(4-hydroxyphenyl)-1,2-dimethyl-N-[1-(tetrahydrofuran-3-yl)-1H-pyrazol-4-yl]-1H-pyrrole-3-carboxamide hydrochloride]", "values": [{"measurement": "IC50", "setting": "Bcl-2 protein", "value": 5.3, "unit": "nM"}, {"measurement": "IC50", "setting": "[1]; Homo sapiens, RS4-11, 48 h", "value": 111, "unit": "nM"}]}, {"compound": "Cc1c(C(=O)N(c2ccc(O)cc2)c2cnc3c(ccn3C)c2)cc(-c2ccccc2C(=O)N2Cc3ccccc3C[C@H]2CN2CCOCC2)n1C", "note": "[Example 409, N-(4-Hydroxyphenyl)-1,2-dimethyl-N-(1-methyl-1H-pyrrolo[2,3-b]-pyridin-5-yl)-5-(2-{[(3S)-3-(morpholin-4-ylmethyl)-3,4-dihydroisoquinolin-2(1H)-yl]-carbonyl}phenyl)-1H-pyrrole-3-carboxamide hydrochloride]", "values": [{"measurement": "IC50", "setting": "Bcl-2 protein", "value": 12.2, "unit": "nM"}, {"measurement": "IC50", "setting": "[1]; Homo sapiens, RS4-11, 48 h", "value": 41.9, "unit": "nM"}]}, {"compound": "CCNC(=O)NCc1ccc(-c2cc(C(=O)N(C)c3ccc(O)cc3)c(C)n2C)c(C(=O)N2Cc3ccccc3C[C@H]2C)c1", "note": "[Example 36, 5-(4-{[(Ethylcarbamoyl)amino]methyl}-2-{[(3R)-3-methyl-3,4-dihydroisoquinolin-2(1H)-yl]carbonyl}phenyl)-N-(4-hydroxyphenyl)-N,1,2-trimethyl-1H-pyrrole-3-carboxamide]", "values": [{"measurement": "IC50", "setting": "Bcl-2 protein", "value": 71.4, "unit": "nM"}, {"measurement": "IC50", "setting": "[1]; Homo sapiens, RS4-11, 48 h", "value": "> 600", "unit": "nM"}]}, {"compound": "COc1ccc(-c2cc(C(=O)N(c3ccc(O)cc3)c3cnn(C)c3)c(C)n2C)c(C(=O)N2Cc3ccccc3C[C@H]2CN2CCOCC2)c1", "note": "[Example 418, N-(4-Hydroxyphenyl)-5-(4-methoxy-2-{[(3S)-3-(morpholin-4-ylmethyl)-3,4-dihydroisoquinolin-2(1H)-yl]carbonyl}phenyl)-1,2-dimethyl-N-(1-methyl-1H-pyrazol-4-yl)-1H-pyrrole-3-carboxamide hydrochloride]", "values": [{"measurement": "IC50", "setting": "Bcl-2 protein", "value": 10.1, "unit": "nM"}, {"measurement": "IC50", "setting": "[1]; Homo sapiens, RS4-11, 48 h", "value": 159, "unit": "nM"}]}, {"compound": "Cc1c(C(=O)N(c2ccc(O)cc2)c2csc(C#N)c2)cc(-c2cc(Cl)ccc2C(=O)N2Cc3ccccc3C[C@H]2CN2CCOCC2)n1C", "note": "[Example 442, 5-(5-Chloro-2-{[(3S)-3-(morpholin-4-ylmethyl)-3,4-dihydroisoquinolin-2(1H)-yl]carbonyl}phenyl)-N-(5-cyanothiophen-3-yl)-N-(4-hydroxyphenyl)-1,2-dimethyl-1H-pyrrole-3-carboxamide hydrochloride]", "values": [{"measurement": "IC50", "setting": "Bcl-2 protein", "value": 3, "unit": "nM"}, {"measurement": "IC50", "setting": "[1]; Homo sapiens, RS4-11, 48 h", "value": 42.8, "unit": "nM"}]}, {"compound": "Cc1c(C(=O)N(c2ccc(O)cc2)c2cnn(C3CCOC3)c2)cc(-c2cc(F)ccc2C(=O)N2Cc3ccccc3C[C@H]2CN2CCOCC2)n1C", "note": "(single isomer, unassigned) [Example 403, 5-(5-Fluoro-2-{[(3S)-3-(morpholin-4-ylmethyl)-3,4-dihydroisoquinolin-2(1H)-yl]carbonyl}phenyl)-N-(4-hydroxyphenyl)-1,2-dimethyl-N-{1-[(3R or S)-tetrahydrofuran-3-yl]-1H-pyrazol-4-yl}-1H-pyrrole-3-carboxamide hydrochloride]", "values": [{"measurement": "IC50", "setting": "Bcl-2 protein", "value": 24.2, "unit": "nM"}, {"measurement": "IC50", "setting": "[1]; hydrochloride", "value": 289, "unit": "nM"}]}, {"compound": "Cc1c(C(=O)N(c2ccc(O)cc2)c2cc(C#N)nn2C)cc(-c2cc(Cl)ccc2C(=O)N2Cc3ccccc3C[C@H]2CN2CCOCC2)n1C", "note": "[Example 450, 5-(5-Chloro-2-{[(3S)-3-(morpholin-4-ylmethyl)-3,4-dihydroisoquinolin-2(1H)-yl]carbonyl}phenyl)-N-(3-cyano-1-methyl-1H-pyrazol-5-yl)-N-(4-hydroxyphenyl)-1,2-dimethyl-1H-pyrrole-3-carboxamide hydrochloride]", "values": [{"measurement": "IC50", "setting": "Bcl-2 protein", "value": 2.7, "unit": "nM"}, {"measurement": "IC50", "setting": "[1]; Homo sapiens, RS4-11, 48 h", "value": 53.2, "unit": "nM"}]}, {"compound": "Cc1c(N(C(=O)c2cc(-c3cc(Cl)ccc3C(=O)N3Cc4ccccc4C[C@H]3CN3CCOCC3)n(C)c2C)c2ccc(O)cc2)cn(C)c1C#N", "note": "[Example 458, 5-(5-Chloro-2-{[(3S)-3-(morpholin-4-ylmethyl)-3,4-dihydroisoquinolin-2(1H)-yl]carbonyl}phenyl)-N-(5-cyano-1,4-dimethyl-1H-pyrrol-3-yl)-N-(4-hydroxyphenyl)-1,2-dimethyl-1H-pyrrole-3-carboxamide hydrochloride]", "values": [{"measurement": "IC50", "setting": "Bcl-2 protein", "value": 10.5, "unit": "nM"}, {"measurement": "IC50", "setting": "[1]; Homo sapiens, RS4-11, 48 h", "value": 197, "unit": "nM"}]}, {"compound": "Cc1c(C(=O)N(c2ccc(O)cc2)c2cnc(F)cn2)cc(-c2cc(Cl)ccc2C(=O)N2Cc3ccccc3C[C@H]2CN2CCOCC2)n1C", "note": "[Example 446, 5-(5-Chloro-2-{[(3S)-3-(morpholin-4-ylmethyl)-3,4-dihydroisoquinolin-2(1H)-yl]carbonyl}phenyl)-N-(5-fluoropyrazin-2-yl)-N-(4-hydroxyphenyl)-1,2-dimethyl-1H-pyrrole-3-carboxamide hydrochloride]", "values": [{"measurement": "IC50", "setting": "Bcl-2 protein", "value": 7.8, "unit": "nM"}, {"measurement": "IC50", "setting": "[1]; Homo sapiens, RS4-11, 48 h", "value": 249, "unit": "nM"}]}, {"compound": "Cc1c(C(=O)N(c2ccccc2)c2cnc3c(ccn3C)c2)cc(-c2cc(Cl)ccc2C(=O)N2Cc3ccccc3C[C@H]2CN2CCOCC2)n1C", "note": "[Example 390, 5-(5-Chloro-2-{[(3S)-3-(morpholin-4-ylmethyl)-3,4-dihydroisoquinolin-2(1H)-yl]carbonyl}phenyl)-1,2-dimethyl-N-(1-methyl-1H-pyrrolo[2,3-b]pyridin-5-yl)-N-phenyl-1H-pyrrole-3-carboxamide]", "values": [{"measurement": "IC50", "setting": "Bcl-2 protein", "value": 21.2, "unit": "nM"}, {"measurement": "IC50", "setting": "[1]; Homo sapiens, RS4-11, 48 h", "value": 173, "unit": "nM"}]}, {"compound": "Cc1ccc(OC(=O)NCc2ccc(-c3cc(C(=O)N(C)c4ccc(O)cc4)c(C)n3C)c(C(=O)N3Cc4ccccc4C[C@H]3C)c2)cc1", "note": "[Example 66, 4-Methylphenyl (4-{4-[(4-hydroxyphenyl)(methyl)carbamoyl]-1,5-dimethyl-1H-pyrrol-2-yl}-3-{[(3R)-3-methyl-3,4-dihydroisoquinolin-2(1H)-yl]-carbonyl}benzyl)carbamate]", "values": [{"measurement": "IC50", "setting": "Bcl-2 protein", "value": 16.9, "unit": "nM"}, {"measurement": "IC50", "setting": "[1]; Homo sapiens", "value": 241, "unit": "nM"}]}, {"compound": "Cc1c(C(=O)N(c2ccccc2)c2ccc(O)cc2)cc(-c2cc3c(cc2C(=O)N2Cc4ccccc4C[C@H]2C)OCO3)n1CCN(C)C", "note": "[Example 98, 1-[2-(Dimethylamino)ethyl]-N-(4-hydroxyphenyl)-2-methyl-5-(6-{[(3R)-3-methyl-3,4-dihydroisoquinolin-2(1H)-yl]carbonyl}-1,3-benzodioxol-5-yl)-N-phenyl-1H-pyrrole-3-carboxamide hydrochloride]", "values": [{"measurement": "IC50", "setting": "Bcl-2 protein", "value": 7.6, "unit": "nM"}, {"measurement": "IC50", "setting": "[1]; Homo sapiens, RS4-11, 48 h", "value": 68.3, "unit": "nM"}]}, {"compound": "COc1ncc(N(C(=O)c2cc(-c3cc(Cl)ccc3C(=O)N3Cc4ccccc4C[C@H]3CN3CCOCC3)n(C)c2C)c2ccc(O)cc2)cn1", "note": "[Example 397, 5-(5-Chloro-2-{[(3S)-3-(morpholin-4-ylmethyl)-3,4-dihydroisoquinolin-2(1H)-yl]carbonyl}phenyl)-N-(4-hydroxyphenyl)-N-(2-methoxypyrimidin-5-yl)-1,2-dimethyl-1H-pyrrole-3-carboxamide]", "values": [{"measurement": "IC50", "setting": "Bcl-2 protein", "value": 4.5, "unit": "nM"}, {"measurement": "IC50", "setting": "[1]; Homo sapiens, RS4-11, 48 h", "value": 37.1, "unit": "nM"}]}, {"compound": "CCn1c(-c2cc3c(cc2C(=O)N2Cc4ccccc4C[C@H]2CN2CCOCC2)OCO3)cc(C(=O)N(c2ccc(O)cc2)c2cnn(C)c2)c1C", "note": "[Example 92, 1-Ethyl-N-(4-hydroxyphenyl)-2-methyl-N-(1-methyl-1H-pyrazol-4-yl)-5-(6-{[(3S)-3-(morpholin-4-ylmethyl)-3,4-dihydroisoquinolin-2(1H)-yl]carbonyl}-1,3-benzodioxol-5-yl)-1H-pyrrole-3-carboxamide hydrochloride]", "values": [{"measurement": "IC50", "setting": "Bcl-2 protein", "value": 8.4, "unit": "nM"}, {"measurement": "IC50", "setting": "[1]; Homo sapiens, RS4-11, 48 h", "value": 37.8, "unit": "nM"}]}]}
